# Results from US11384063B2, “Modulators of estrogen receptor proteolysis and associated methods of use” (Arvinas Operations, Inc., priority 2017, dated 2022).
# Biological target: T1, ERα (Homo sapiens, UniProt P03372)
# T1 sequence (P03372 1-595): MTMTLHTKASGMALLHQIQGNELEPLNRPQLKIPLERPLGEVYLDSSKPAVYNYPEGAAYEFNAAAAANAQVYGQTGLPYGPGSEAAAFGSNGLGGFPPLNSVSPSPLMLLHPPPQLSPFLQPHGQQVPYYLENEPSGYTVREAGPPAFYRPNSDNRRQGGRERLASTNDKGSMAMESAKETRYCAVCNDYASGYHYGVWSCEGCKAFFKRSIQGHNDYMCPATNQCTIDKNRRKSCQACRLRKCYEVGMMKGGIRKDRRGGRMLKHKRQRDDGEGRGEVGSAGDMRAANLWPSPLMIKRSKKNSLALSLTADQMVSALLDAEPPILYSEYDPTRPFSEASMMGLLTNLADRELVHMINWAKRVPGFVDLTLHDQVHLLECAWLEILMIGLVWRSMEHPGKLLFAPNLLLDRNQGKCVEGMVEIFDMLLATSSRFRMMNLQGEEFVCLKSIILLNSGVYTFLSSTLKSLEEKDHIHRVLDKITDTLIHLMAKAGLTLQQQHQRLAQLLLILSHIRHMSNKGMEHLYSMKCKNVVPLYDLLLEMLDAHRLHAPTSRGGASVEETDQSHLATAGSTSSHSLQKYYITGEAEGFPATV
# Assay: ERE luciferase reporter gene assay in T47D-KBluc cells (target engagement)
# Format: cell-based
# Set-up: T47D human breast cancer cells stably transfected with estrogen responsive element/promoter/luciferase reporter gene; host or cells: T47D-KBluc cells
# Settings: 10% FBS, 24 hours, Table 1 cereblon centric PROTACs, read-out: ER-α Luciferase IC50
# Procedure: Chimeric molecules were assessed for target engagement in T47D cells using the commercial kit of ERE luciferase reporter gene assay. In the assay, 10% FBS was included and estrogen level was measured to be 10 pM.
# ERE Luciferase Assay for Compounds in Table 1-3.
# T47D-KBluc cells (ATCC #CRL_2865, T47D human breast cancer cells stably transfected with estrogen responsive element/promoter/luciferase reporter gene) were seeded into 96-well white opaque plates in RPMI growth medium supplemented with 10% fetal bovine serum and allowed to adhere overnight in a 37° C. humidified incubator. The following day, cells were treated with PROTACs in a 12-point concentration curve (top final concentration of 300 nM with subsequent concentrations being 3-fold less with 2 pM being the lowest concentration in the assay). Each PROTAC was tested independently in two experiments on 96-well plates. After 24 hours, media was removed and lysis buffer was added to the wells. Following lysis, Bright-Glo™ Luciferase Assay Substrate (Prornega, Madison Wis.) was added and the luciferase activity was measured using a Cytation 3 plate reader (TioTek™, Winooski, Vt.). Each compound was assayed in duplicates and the activity was calculated as IC50 using GraphPad Prism software (San Diego, Calif.).
row,SMILES,IC50
1,O=C(CN1CCN(CCOc2ccc(Oc3c(-c4ccc(Br)cc4)sc4cc(O)ccc34)cc2)CC1)NCc1ccc2c(c1)CN(C1CCC(=O)NC1=O)C2=O (centres unmarked) [Compound 1],12.7 nM
2,O=C1CCC(N2Cc3c(NCCN4CCN(CCOc5ccc(Oc6c(-c7ccccc7)sc7cc(O)ccc67)cc5)CC4)cccc3C2=O)C(=O)N1 (centres unmarked) [Compound 2],0.36 nM
3,O=C1CCC(N2C(=O)c3cccc(NCCN4CCN(CCOc5ccc(Oc6c(-c7ccc(O)cc7)sc7cc(O)ccc67)cc5)CC4)c3C2=O)C(=O)N1 (centres unmarked) [Compound 3],0.14 nM
4,O=C1CCC(N2Cc3c(NCCN4CCN(CCOc5ccc(Oc6c(-c7ccc(O)cc7)sc7cc(O)ccc67)cc5)CC4)cccc3C2=O)C(=O)N1 (centres unmarked) [Compound 4],0.09 nM
5,O=C1CCC(N2Cc3c(NCCN4CCN(CCOc5ccc(Oc6c(-c7ccc(Br)cc7)sc7cc(O)ccc67)cc5)CC4)cccc3C2=O)C(=O)N1 (centres unmarked) [Compound 5],0.9 nM
6,O=C1CCC(N2C(=O)c3cccc(NCCN4CCN(CCOc5ccc(Oc6c(-c7ccc(Br)cc7)sc7cc(O)ccc67)cc5)CC4)c3C2=O)C(=O)N1 (centres unmarked) [Compound 6],1.3 nM
7,O=C1CCC(N2Cc3c(OCCN4CCN(CCOc5ccc(Oc6c(-c7ccc(Br)cc7)sc7cc(O)ccc67)cc5)CC4)cccc3C2=O)C(=O)N1 (centres unmarked) [Compound 7],1.1 nM
8,O=C1CC[C@H](N2Cc3cc(OCC(=O)N4CCN(CCOc5ccc(Oc6c(-c7ccc(Br)cc7)sc7cc(O)ccc67)cc5)CC4)ccc3C2=O)C(=O)N1 [Compound 8],1.9 nM
9,O=C1CC[C@@H](N2Cc3c(OCc4ccc(CN5CCN(CCOc6ccc(Oc7c(-c8ccc(Br)cc8)sc8cc(O)ccc78)cc6)CC5)nc4)cccc3C2=O)C(=O)N1 [Compound 9],2.9 nM
10,O=C1CCC(N2C(=O)c3cccc(NCCN4CCN(CCOc5ccc(Oc6c(-c7ccccc7)sc7cc(O)ccc67)cc5)CC4)c3C2=O)C(=O)N1 (centres unmarked) [Compound 10],0.63 nM
11,"C[C@H](COc1ccc(Oc2c(-c3ccc(Br)cc3)sc3cc(O)ccc23)cc1)N1CCN(CC(=O)NCc2ccc3c(c2)CN(C2CCC(=O)NC2=O)C3=O)CC1 (stereo partly drawn) [Compound 11, 2-{4-[(2R)-1-(4-{[2-(4-bromophenyl)-6-hydroxy-1-benzothiophen-3-yl]oxy}phenoxy)propan-2-yl]piperazin-1-yl}-N-{[2-(2,6-dioxopiperidin-3-yl)-1-oxo-2,3-dihydro-1H-isoindol-5-yl]methyl}acetamide]",2.6 nM
12,C[C@@H](COc1ccc(Oc2c(-c3ccc(Br)cc3)sc3cc(O)ccc23)cc1)N1CCN(CC(=O)NCc2ccc3c(c2)CN(C2CCC(=O)NC2=O)C3=O)CC1 (some centres unmarked) [Compound 12],2.5 nM
13,C[C@H](COc1ccc(Oc2c(-c3ccc(Br)cc3)sc3cc(O)ccc23)cc1)N1CCN(CCOc2cccc3c2CN(C2CCC(=O)NC2=O)C3=O)CC1 (some centres unmarked) [Compound 13],1.3 nM
14,Cc1nc2c(NCCN3CCN(CCOc4ccc(Oc5c(-c6ccc(Br)cc6)sc6cc(O)ccc56)cc4)CC3)cccc2c(=O)n1C1CCC(=O)NC1=O (centres unmarked) [Compound 14],17.7 nM
15,C[C@@H](COc1ccc(Oc2c(-c3ccc(Br)cc3)sc3cc(O)ccc23)cc1)N1CCN(CCOc2cccc3c2CN(C2CCC(=O)NC2=O)C3=O)CC1 (some centres unmarked) [Compound 15],1.7 nM
16,Cc1nc2c(OCCN3CCN(CCOc4ccc(Oc5c(-c6ccc(Br)cc6)sc6cc(O)ccc56)cc4)CC3)cccc2c(=O)n1C1CCC(=O)NC1=O (centres unmarked) [Compound 16],8.8 nM
17,O=C1CCC(N2Cc3c(OCCOCCOc4ccc(Oc5c(-c6ccc(Br)cc6)sc6cc(O)ccc56)cc4)cccc3C2=O)C(=O)N1 (centres unmarked) [Compound 17],2.9 nM
18,O=C1CCC(N2Cc3c(NCCOCCOCCOCCOCCOc4ccc(Oc5c(-c6ccc(Br)cc6)sc6cc(O)ccc56)cc4)cccc3C2=O)C(=O)N1 (centres unmarked) [Compound 18],81.4 nM
19,O=C1CCC(N2Cc3c(OCCOCCOCCOc4ccc(Oc5c(-c6ccc(Br)cc6)sc6cc(O)ccc56)cc4)cccc3C2=O)C(=O)N1 (centres unmarked) [Compound 19],8.9 nM
20,O=C1CCC(N2C(=O)c3cccc(NCCOCCOCCOCCOCCOc4ccc(Oc5c(-c6ccc(Br)cc6)sc6cc(O)ccc56)cc4)c3C2=O)C(=O)N1 (centres unmarked) [Compound 20],39.9 nM
21,O=C1CCC(N2Cc3c(OCCOCCOCCOCCOc4ccc(Oc5c(-c6ccc(Br)cc6)sc6cc(O)ccc56)cc4)cccc3C2=O)C(=O)N1 (centres unmarked) [Compound 21],17.4 nM
22,O=C1CCC(N2Cc3c(NCCOCCOCCOCCOc4ccc(Oc5c(-c6ccc(Br)cc6)sc6cc(O)ccc56)cc4)cccc3C2=O)C(=O)N1 (centres unmarked) [Compound 22],41.4 nM
23,O=C1CCC(N2C(=O)c3cccc(NCCOCCOCCOCCOc4ccc(Oc5c(-c6ccc(Br)cc6)sc6cc(O)ccc56)cc4)c3C2=O)C(=O)N1 (centres unmarked) [Compound 23],22.4 nM
24,O=C1CCC(N2Cc3c(NCCOCCOCCOc4ccc(Oc5c(-c6ccc(Br)cc6)sc6cc(O)ccc56)cc4)cccc3C2=O)C(=O)N1 (centres unmarked) [Compound 24],16.8 nM

# The remaining lines, values ahead:
row,IC50,SMILES
1,8.6 nM,O=C1CCC(N2Cc3c(OCCOCCOCCOCCOCCOc4ccc(Oc5c(-c6ccc(Br)cc6)sc6cc(O)ccc56)cc4)cccc3C2=O)C(=O)N1 (centres unmarked) [Compound 25]
2,9.7 nM,O=C1CCC(N2C(=O)c3cccc(NCCOCCOCCOc4ccc(Oc5c(-c6ccc(Br)cc6)sc6cc(O)ccc56)cc4)c3C2=O)C(=O)N1 (centres unmarked) [Compound 26]
3,8.3 nM,O=C1CCC(N2Cc3c(NCCOCCOc4ccc(Oc5c(-c6ccc(Br)cc6)sc6cc(O)ccc56)cc4)cccc3C2=O)C(=O)N1 (centres unmarked) [Compound 27]
4,2.7 nM,O=C1CCC(N2Cc3c(OCCOc4ccc(Oc5c(-c6ccc(Br)cc6)sc6cc(O)ccc56)cc4)cccc3C2=O)C(=O)N1 (centres unmarked) [Compound 28]
5,19.2 nM,O=C1CCC(N2C(=O)c3cccc(NCCOCCOc4ccc(Oc5c(-c6ccc(Br)cc6)sc6cc(O)ccc56)cc4)c3C2=O)C(=O)N1 (centres unmarked) [Compound 29]
6,1.3 nM,O=C1CCC(N2Cc3cc(OCCN4CCN(CCOc5ccc(Oc6c(-c7ccc(Br)cc7)sc7cc(O)ccc67)cc5)CC4)ccc3C2=O)C(=O)N1 (centres unmarked) [Compound 30]
7,8.2 nM,O=C1CCC(N2C(=O)c3cccc(NCCOc4ccc(Oc5c(-c6ccc(Br)cc6)sc6cc(O)ccc56)cc4)c3C2=O)C(=O)N1 (centres unmarked) [Compound 32]
8,1 nM,O=C1CCC(N2Cc3cc(OCCCN4CCN(CCOc5ccc(Oc6c(-c7ccc(Br)cc7)sc7cc(O)ccc67)cc5)CC4)ccc3C2=O)C(=O)N1 (centres unmarked) [Compound 34]
9,9.9 nM,O=C1CCC(N2Cc3cc(OCCCOCCCOc4ccc(Oc5c(-c6ccc(Br)cc6)sc6cc(O)ccc56)cc4)ccc3C2=O)C(=O)N1 (centres unmarked) [Compound 35]
10,4.7 nM,O=C1CCC(N2Cc3cc(OCCCOCCCOCCCOc4ccc(Oc5c(-c6ccc(Br)cc6)sc6cc(O)ccc56)cc4)ccc3C2=O)C(=O)N1 (centres unmarked) [Compound 36]
11,4.2 nM,O=C1CCC(N2Cc3c(OCCN4CC5(CN(CCOc6ccc(Oc7c(-c8ccc(Br)cc8)sc8cc(O)ccc78)cc6)C5)C4)cccc3C2=O)C(=O)N1 (centres unmarked) [Compound 37]
12,1.1 nM,O=C1CC[C@@H](N2Cc3cc(OCCN4C[C@H]5C[C@@H]4CN5CCOc4ccc(Oc5c(-c6ccc(Br)cc6)sc6cc(O)ccc56)cc4)ccc3C2=O)C(=O)N1 [Compound 38]
13,3.1 nM,O=C1CCC(N2Cc3cc(OCCOCCOCCOc4ccc(Oc5c(-c6ccc(Br)cc6)sc6cc(O)ccc56)cc4)ccc3C2=O)C(=O)N1 (centres unmarked) [Compound 39]
14,3.9 nM,O=C1CCC(N2Cc3cc(OCCCOCCOc4ccc(Oc5c(-c6ccc(Br)cc6)sc6cc(O)ccc56)cc4)ccc3C2=O)C(=O)N1 (centres unmarked) [Compound 40]
15,2.4 nM,O=C1CC[C@H](N2Cc3cc(OCCN4CC5(CN(CCOc6ccc(Oc7c(-c8ccc(Br)cc8)sc8cc(O)ccc78)cc6)C5)C4)ccc3C2=O)C(=O)N1 [Compound 41]
16,0.53 nM,O=C1CC[C@H](N2Cc3cc(OCCN4C[C@@H]5C[C@H]4CN5CCOc4ccc(Oc5c(-c6ccc(Br)cc6)sc6cc(O)ccc56)cc4)ccc3C2=O)C(=O)N1 [Compound 42]
17,6.1 nM,O=C1CCC(N2Cc3cc(OCCCOCCOCCOc4ccc(Oc5c(-c6ccc(Br)cc6)sc6cc(O)ccc56)cc4)ccc3C2=O)C(=O)N1 (centres unmarked) [Compound 43]
18,0.54 nM,O=C1CC[C@H](N2Cc3cc(OCCOC4CCN(CCOc5ccc(Oc6c(-c7ccc(Br)cc7)sc7cc(O)ccc67)cc5)CC4)ccc3C2=O)C(=O)N1 [Compound 44]
19,6.5 nM,O=C1CCC(N2Cc3cc(OCCCOCCCOCCOc4ccc(Oc5c(-c6ccc(Br)cc6)sc6cc(O)ccc56)cc4)ccc3C2=O)C(=O)N1 (centres unmarked) [Compound 45]
20,1.9 nM,O=C1CCC(N2Cc3cc(CCC(=O)N4CCN(CCOc5ccc(Oc6c(-c7ccc(Br)cc7)sc7cc(O)ccc67)cc5)CC4)ccc3C2=O)C(=O)N1 (centres unmarked) [Compound 46]
